Reference: US20260000676A1, “CHROMAN DERIVATIVES AS ESTROGEN RECEPTOR DEGRADERS” (THE REGENTS OF THE UNIVERSITY OF MICHIGAN, priority 2022, published 2026)

How the values were obtained:
CRBN/DDB1 = CRBN/DDB1 (Homo sapiens (Human), UniProt Q96SW2); assay: HTRF binding assay to CRBN/DDB1; conditions: read-out: CRBN HTRF IC50
Method: The binding potency was determined using HTRF assay technology (Perkin Elmer). Compounds were serially diluted in DMSO and 0.2 μL volume was transferred to white 384-well plate.

ER [1] = molecular target: T1, ER (Homo sapiens (Human), UniProt P03372); assay: In-cell western (ICW) ER degradation assay in MCF-7 cells; type: cell-based; conditions: MCF7, 16 hrs; for DC50: ER degradation; for Dmax: MCF7, maximal ER degradation; for MCF7 Dmax %: maximal ER degradation
ER [2] = molecular target: T1, ER; assay: In-cell western (ICW) ER degradation assay in T47D cells; type: cell-based; conditions: 16 hrs; for DC50: ER degradation; for Dmax / T47D Dmax %: maximal ER degradation
MCF-7 cells = assay: cells; conditions: Homo sapiens, MCF7, 144 h, read-out: MCF7 Proliferation IC50 (nM)
Method: (§1) In vitro assay can be accomplished by MCF-7 and T47D Cell Titer Glo (CTG) assay. MCF-7 and T47D cell (From HDB) are cultured in multi-well white plate with phenol red-free RPMI1640+10% CS-FBS+1% P/S medium (e.g., at 1,000 cells/well). On day 0: Cells are treated with compound at certain concentrations (e.g., 0.5 to 10000 nM) (DMSO and Staurosporine as control). On day 0 and day 6: add Cell Titer Glo reagent and read on EnVision after 30 min incubation for data generation.
(§2) • 1) Cell culture medium: phenol red-free RPMI1640+10% CS-FBS, 1% P/S
(§3) Day-1: MCF-7 and T47D cell (From HDB) were cultured in 384-well white plate with phenol red-free RPMI1640+10% CS-FBS+1% P/S medium (1,000 cells/well) for overnight at 37° C., 5% CO2 incubator.
(§4) Day 0: Cells were treated at desired compound concentrations (0.5 to 10000 nM) (DMSO and Staurosporine as control) for Day 6 at 37° C., 5% CO2 incubator.
(§5) Day 0 and Day 6: add Cell TiterGlo reagent and read on EnVision after 30 min incubation for data generation.

T47D cells = assay: cells; conditions: Homo sapiens, 144 h, read-out: T47D Proliferation IC50 (nM)
Method: as §1, §2, §3, §4, §5

ERα_LBD(GST) = ERα_LBD(GST) (Homo sapiens (Human), UniProt P03372); assay: LanthaScreen TR-FRET ERα competitive binding assay; conditions: read-out: ERα HTRF IC50
Method: • 1. ERα_LBD(GST) protein: 4 nM • 2. Tb Anti-GST: 2 nM • 3. Fluormone ES2 Green tracer: 3 nM • 4. Incubation time: 60 min • 5. DMSO: 1% • 6. Assay buffer: Adding 1M DTT to Nuclear receptor Buffer K for final 5 mM DTT. • 7. ZPE: 1% DMSO • 8. HPE: 1 μM ARV_471 • 9. LanthaScreen® TR-FRET ERα Competitive Binding Assay (ThermoFisher, #A15887)
• 1) Cherry pick 2 μL 10 mM compound stock to column 1 of a 384 intermediate plate • 2) Add 18 μL DMSO to column 1 to dilute compound to 1 mM. • 3) Transfer 10 μL 1 mM compound to column 1 of a LDV plate. • 2) Add 6 μl DMSO to column 2-10 of the LDV plate. • 3) Compounds undergo 3-fold serial dilution (3 μL+6 μL) in DMSO. • 4) Transfer 120 nL compound solution to assay plate. • ZPE: 120 nL 100% DMSO
Prepare complete nuclear receptor buffer K by adding 1 M DTT to nuclear receptor buffer K for a final concentration of 5 mM DTT. Complete nuclear receptor buffer K must be prepared fresh daily. Prepare 2× protein solution using complete nuclear receptor buffer K containing 8 nM ERα_LBD(GST) and 4 nM Tb Anti-GST. Then, prepare 2× Fluormone ES2 Green tracer (6 nM) using complete nuclear receptor buffer K. Add 6 μL 2× Fluormone ES2 green tracer into a compound plate (PerkinElmer 6008289) by dragonfly with one-tips-addition. Subsequently, add 6 μL 2× protein solution into the plate. Briefly and gently mix the 384-well plate on a plate shaker and incubate at room temperature protected from light for 60 min. The plate is sealed with a cover to minimize evaporation. Read the plate at wavelengths of 520 nm and 495 nm. Calculate the TR-FRET ratio by dividing the emission signal at 520 nm by the emission signal at 495 nm. Generate a binding curve by plotting the emission ratio vs. the log [ligand]. To determine the IC50 value, fit the data using XL-fit for a sigmoidal dose-response.

Sequence of CRBN/DDB1 (Q96SW2 whole entry): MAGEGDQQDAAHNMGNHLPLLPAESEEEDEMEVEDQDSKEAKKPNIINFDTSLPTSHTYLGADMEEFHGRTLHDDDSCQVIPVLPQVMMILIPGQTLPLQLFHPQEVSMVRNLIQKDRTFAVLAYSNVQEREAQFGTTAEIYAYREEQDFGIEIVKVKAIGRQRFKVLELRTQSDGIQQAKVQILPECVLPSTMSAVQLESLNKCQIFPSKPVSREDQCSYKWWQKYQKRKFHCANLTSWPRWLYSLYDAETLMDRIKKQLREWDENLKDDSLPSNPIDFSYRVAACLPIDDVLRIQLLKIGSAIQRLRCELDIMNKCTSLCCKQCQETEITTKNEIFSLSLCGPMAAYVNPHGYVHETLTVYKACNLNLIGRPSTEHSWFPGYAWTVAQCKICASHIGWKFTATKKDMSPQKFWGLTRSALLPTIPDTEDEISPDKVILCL
Sequence of CRBN/DDB1 (Q16531 whole entry partner): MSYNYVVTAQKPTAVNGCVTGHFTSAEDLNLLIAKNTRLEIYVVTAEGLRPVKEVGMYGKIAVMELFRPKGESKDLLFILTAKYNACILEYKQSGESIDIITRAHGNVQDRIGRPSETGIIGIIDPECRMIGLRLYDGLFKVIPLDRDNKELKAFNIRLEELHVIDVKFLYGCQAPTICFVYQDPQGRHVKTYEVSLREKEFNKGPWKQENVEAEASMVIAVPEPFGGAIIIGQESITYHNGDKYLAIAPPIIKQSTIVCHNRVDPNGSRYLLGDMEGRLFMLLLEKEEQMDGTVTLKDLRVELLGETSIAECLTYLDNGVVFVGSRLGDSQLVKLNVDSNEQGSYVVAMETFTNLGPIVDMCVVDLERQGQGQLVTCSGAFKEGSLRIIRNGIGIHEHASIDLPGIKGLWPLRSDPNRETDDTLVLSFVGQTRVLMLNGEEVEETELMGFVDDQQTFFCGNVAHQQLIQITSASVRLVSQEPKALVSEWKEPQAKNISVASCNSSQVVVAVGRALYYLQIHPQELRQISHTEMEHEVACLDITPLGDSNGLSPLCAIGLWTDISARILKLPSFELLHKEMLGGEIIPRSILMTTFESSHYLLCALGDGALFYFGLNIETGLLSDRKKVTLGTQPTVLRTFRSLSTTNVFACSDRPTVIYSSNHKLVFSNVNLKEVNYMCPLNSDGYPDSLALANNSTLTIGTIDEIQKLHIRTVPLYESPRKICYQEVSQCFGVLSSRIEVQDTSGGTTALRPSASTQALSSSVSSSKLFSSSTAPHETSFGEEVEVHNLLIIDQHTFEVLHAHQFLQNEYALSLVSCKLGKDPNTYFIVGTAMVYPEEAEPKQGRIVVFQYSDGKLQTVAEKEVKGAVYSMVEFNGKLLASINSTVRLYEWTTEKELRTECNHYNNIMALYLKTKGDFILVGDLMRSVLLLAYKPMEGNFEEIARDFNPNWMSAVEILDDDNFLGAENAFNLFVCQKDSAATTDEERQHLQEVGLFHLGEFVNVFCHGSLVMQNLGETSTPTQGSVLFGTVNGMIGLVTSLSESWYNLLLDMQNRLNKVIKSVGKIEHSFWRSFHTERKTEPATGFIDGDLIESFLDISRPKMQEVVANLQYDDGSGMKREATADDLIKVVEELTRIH
Sequence of ERα_LBD(GST) (P03372 311-547): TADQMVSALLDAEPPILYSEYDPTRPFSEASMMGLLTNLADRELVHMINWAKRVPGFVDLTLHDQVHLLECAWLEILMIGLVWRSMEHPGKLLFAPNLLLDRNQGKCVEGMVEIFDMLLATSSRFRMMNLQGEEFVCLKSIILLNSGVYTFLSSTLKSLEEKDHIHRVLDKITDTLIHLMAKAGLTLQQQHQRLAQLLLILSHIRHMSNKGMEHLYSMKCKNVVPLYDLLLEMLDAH
T1 sequence (P03372 whole entry): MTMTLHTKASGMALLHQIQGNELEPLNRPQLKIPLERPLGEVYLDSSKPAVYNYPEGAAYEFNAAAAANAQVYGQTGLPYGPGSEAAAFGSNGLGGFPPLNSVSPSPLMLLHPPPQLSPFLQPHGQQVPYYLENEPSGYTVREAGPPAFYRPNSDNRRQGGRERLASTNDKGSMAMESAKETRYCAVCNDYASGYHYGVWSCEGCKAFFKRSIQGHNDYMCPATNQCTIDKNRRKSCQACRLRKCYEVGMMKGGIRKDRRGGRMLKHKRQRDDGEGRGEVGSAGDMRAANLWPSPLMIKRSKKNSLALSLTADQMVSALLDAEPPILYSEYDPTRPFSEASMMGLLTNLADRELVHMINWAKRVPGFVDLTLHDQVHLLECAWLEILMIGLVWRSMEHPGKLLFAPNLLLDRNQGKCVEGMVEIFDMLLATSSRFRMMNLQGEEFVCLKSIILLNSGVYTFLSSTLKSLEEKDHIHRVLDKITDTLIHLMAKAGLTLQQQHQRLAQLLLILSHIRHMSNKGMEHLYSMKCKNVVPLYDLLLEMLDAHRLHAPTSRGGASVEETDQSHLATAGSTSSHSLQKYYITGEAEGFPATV

| SMILES | IC50 (CRBN/DDB1) [nM] | DC50 (ER [1]) [nM] | Dmax (ER [1]) [%] | DC50 (ER [2]) [nM] | Dmax (ER [2]) [%] | IC50 (MCF-7 cells) [nM] | IC50 (T47D cells) [nM] | IC50 (ERα_LBD(GST)) [nM] | MCF7 Dmax % (ER [1]) | T47D Dmax % (ER [2]) |
| --- | --- | --- | --- | --- | --- | --- | --- | --- | --- | --- |
| O=C1CCC(N2Cc3c(ccc4c3OCC43CCN(CC4CCC5(CC4)CN(c4ccc([C@@H]6c7ccc(O)cc7OC[C@@H]6c6ccccc6)cc4)C5)CC3)C2=O)C(=O)N1 (stereo partly drawn) [Compound A114, 3-(1′-((2-(4-((3S,4R)-7-hydroxy-3-phenylchroman-4-yl)phenyl)-2-azaspiro[3.5]nonan-7-yl)methyl)-6-oxo-6,8-dihydro-2H,7H-spiro[furo[2,3-e]isoindole-3,4′-piperidin]-7-yl)piperidine-2,6-dione] | < 50 | < 1 | ≥ 75 | < 1 | ≥ 75 | < 50 | < 50 |  |  |  |
| O=C1CCC(Nc2ccc(N3CCN(CC4CC5(CCN(c6ccc([C@H]7c8ccc(O)cc8OC[C@H]7c7ccccc7)cc6)CC5)C4)CC3)c(F)c2)C(=O)N1 (single isomer, unassigned) [Compound A51] | 500 to 5000 | < 1 | 25 to 50 | < 1 | 25 to 50 | 50 to 500 | 50 to 500 |  |  |  |
| COc1cc(C(=O)NC2CCC(=O)NC2=O)ncc1N1CCN(CC2CC3(CCN(c4ccc([C@H]5c6ccc(O)cc6OC[C@H]5c5ccccc5)cc4)CC3)C2)CC1 (single isomer, unassigned) [Compound A116] | 500 to 5000 | < 1 | 50 to 75 | < 1 | 50 to 75 | < 50 | 50 to 500 |  |  |  |
| O=C1CC[C@@H](Nc2ccc(C3CCN(CC4CCC5(CC4)CN(c4ccc([C@H]6c7ccc(O)cc7OC[C@H]6c6ccccc6)cc4)C5)CC3)cc2)C(=O)N1 (single isomer, unassigned) [Compound A140] | 500 to 5000 | < 1 | 50 to 75 | < 1 | 50 to 75 |  |  | < 5 |  |  |
| O=C1CCC(N2Cc3c(ccc4c3OCC43CCN(CC4COC5(CCN(c6ccc([C@H]7c8ccc(O)cc8OC[C@H]7c7ccccc7)cc6)CC5)C4)CC3)C2=O)C(=O)N1 (stereo partly drawn) [Compound A146, 3-(1′-((8-(4-((3R,4S)-7-hydroxy-3-phenylchroman-4-yl)phenyl)-1-oxa-8-azaspiro[4.5]decan-3-yl)methyl)-6-oxo-6,8-dihydro-2H,7H-spiro[furo[2,3-e]isoindole-3,4′-piperidin]-7-yl)piperidine-2,6-dione] | < 50 | 1 to 10 | 50 to 75 | 1 to 10 | 25 to 50 |  |  | ≥ 5 |  |  |
| COc1cc(N2CCC(CN3CCN4c5ccc6c(c5OC[C@H]4C3)CN(C3CCC(=O)NC3=O)C6=O)CC2)ccc1[C@@H]1c2ccc(O)cc2OC[C@@H]1c1ccccc1 (single isomer, unassigned) [Compound A77] | 500 to 5000 | < 1 | 50 to 75 | < 1 | 50 to 75 |  |  | < 5 |  |  |
| COc1cc(N2CCC3(CC2)CC(CN2CCC4(CC2)COc2c4ccc4c2CN(C2CCC(=O)NC2=O)C4=O)C3)c(F)cc1[C@H]1c2ccc(O)cc2OC[C@H]1c1ccccc1 (stereo partly drawn) [Compound A130, 3-(1′-((7-(2-fluoro-4-((3R,4R)-7-hydroxy-3-phenylchroman-4-yl)-5-methoxyphenyl)-7-azaspiro[3.5]nonan-2-yl)methyl)-6-oxo-6,8-dihydro-2H,7H-spiro[furo[2,3-e]isoindole-3,4′-piperidin]-7-yl)piperidine-2,6-dione] | 50 to 500 | < 1 |  | < 1 |  |  |  | < 5 | A (“A”; >=75%) | A (“A”; >=75%) |
| O=C1CC[C@H](N2Cc3cc4c(cc3C2)N2CCN(C[C@@H]3COC5(CCN(c6ccc([C@H]7c8ccc(O)cc8OC[C@H]7c7ccccc7)cc6F)CC5)C3)C[C@H]2CO4)C(=O)N1 [Compound A161, (S)-3-((S)-3-(((R)-8-(2-fluoro-4-((3R,4S)-7-hydroxy-3-phenylchroman-4-yl)phenyl)-1-oxa-8-azaspiro[4.5]decan-3-yl)methyl)-1,2,3,4,4a, 5,8,10-octahydro-9H-pyrazino[1′,2′:4,5][1,4]oxazino[2,3-f]isoindol-9-yl)piperidine-2,6-dione] | 50 to 500 | < 1 | 50 to 75 | < 1 | ≥ 75 | < 50 |  |  |  |  |
| O=C1CC[C@H](NC(=O)c2ccc3c(n2)OC[C@H]2CN(C[C@H]4COC5(CCN(c6ccc([C@@H]7c8ccc(O)cc8OC[C@@H]7c7ccccc7)cc6)CC5)C4)CCN32)C(=O)N1 [Compound A147, (R)-N-((S)-2,6-dioxopiperidin-3-yl)-3-(((S)-8-(4-((3S,4R)-7-hydroxy-3-phenylchroman-4-yl)phenyl)-1-oxa-8-azaspiro[4.5]decan-3-yl)methyl)-1,2,3,4,4a,5-hexahydropyrazino[1,2-d]pyrido[2,3-b][1,4]oxazine-8-carboxamide] | 500 to 5000 | < 1 | 50 to 75 | < 1 | 50 to 75 |  |  | < 5 |  |  |
| COc1cc(N2CCC(CN3CCN(c4ccc(C(=O)NC5CCC(=O)NC5=O)nc4)CC3)CC2)c(F)cc1[C@H]1c2ccc(O)cc2OC[C@H]1c1ccccc1 (stereo partly drawn) [Compound A110, N-(2,6-dioxopiperidin-3-yl)-5-(4-((1-(2-fluoro-4-((3R,4R)-7-hydroxy-3-phenylchroman-4-yl)-5-methoxyphenyl)piperidin-4-yl)methyl)piperazin-1-yl)picolinamide] | > 5000 | < 1 |  | < 1 |  |  |  | < 5 | B (“B”: >50% and <75%) | B (“B”: >50% and <75%) |
| O=C1CCC(N2Cc3cc4c(cc3C2=O)CN(C(=O)CN2CCC3(CC2)CN(c2ccc([C@@H]5c6ccc(O)cc6OC[C@@H]5c5ccccc5)cc2)C3)C4)C(=O)N1 (stereo partly drawn) [Compound A49, 3-(6-(2-(2-(4-((3S,4R)-7-hydroxy-3-phenylchroman-4-yl)phenyl)-2,7-diazaspiro[3.5]nonan-7-yl)acetyl)-1-oxo-3,5,6,7-tetrahydropyrrolo[3,4-f]isoindol-2(1H)-yl)piperidine-2,6-dione] | 50 to 500 | 1 to 10 | 50 to 75 | 1 to 10 | 50 to 75 |  |  | < 5 |  |  |
| O=C1CCC(N2Cc3c(ccc4c3OC[C@H]3CN(CC5CCN(c6ccc([C@H]7c8ccc(O)cc8OC[C@H]7c7ccccc7)cn6)CC5)CCN43)C2=O)C(=O)N1 (single isomer, unassigned) [Compound A64] | 50 to 500 | 1 to 10 | 25 to 50 | 1 to 10 | 50 to 75 |  |  | < 5 |  |  |
| O=C1CCC(N2Cc3cc4c(cc3C2=O)CN(C(=O)C2CCN(C3CCN(c5ccc([C@@H]6c7ccc(O)cc7OC[C@@H]6c6ccccc6)cc5)CC3)CC2)C4)C(=O)N1 (single isomer, unassigned) [Compound A81] | 500 to 5000 | < 1 | ≥ 75 | < 1 | ≥ 75 |  |  | < 5 |  |  |
